# Laboratory results taken from US9895346B2, “Applications of substituent benzyloxy group containing ether compounds for preparing antitumor drugs” (Sinochem Corporation, priority 2013, dated 2018).
# Columns and labels:
# [1] = system: lung cancer cell line H460; test: In vitro cell inhibition assay (crystal violet), lung cancer H460; format: cell-based, human
# Excerpt: (§1) In vitro Cell inhibition assay is as follows:
# (§2) The human cancer cell lines used for this assay were bladder cancer J82, T24, prostate cancer LNCap, PC-3, lung cancer A549, H157, H460, H520, colon cancer HCT8, HCT116, RkO, and leukemia HL-60, etc.
# (§3) In vitro cell culture technology was selected for the determination of inhibition rate bladder cancer cell lines J82 and T24, prostate cancer cell lines LNCap and PC-3, lung cancer cell lines A549, H157, H460 and H520. 1000 to 3000 cells were inoculated to 24-well plate, followed by addition of 1 mL culture medium well known to researchers in this field to each well, the cells were cultured in 5% incubator for 24 hours at 37° C., then the different concentration compounds and controls were added to each well. It should be noted that the added volume is not more than 0.5% of total volume. After completion of addition, the cells continued being cultured in incubator for one week, the culture medium was removed and washed by cold PBS of 1 mL once, and then fixed for 10 minutes at room temperature with 1% formalin, followed by wash with PBS of 1 mL. After fixation, stain was carried out with 0.1% crystal violet for 30 minutes. 0.1% crystal violet was recycled. The stained cells were washed gently with deionized water, dried at room temperature and kepted. The inhibition rate was calculated according to the foiling equation. The controls are Selumetinib (AZD6244), Gefitinib, Cisplatin. Inhibition rate=number of left cells each treatment/number of left cells of untreated control×100%
# [2] = system: human leukemia HL-60 cells; test: Proliferation inhibition of human leukemia HL-60 cells, MTT method; format: cell-based; details: 48 h incubation, OPTI-MEM medium
# Experimental: The inhibition rate of human leukemia HL-60 cells was evaluated by regular MTT method. The human leukemia HL-60 cells were picked up from cell incubator, after washed for twice using PBS, cells were digested by 0.25% trypsin, and then add medium to terminate the digestion. After cells were collected using centrifuge and re-suspended, counting cells under inverted microscope and adding medium to make a density which was 5×10^4 cells/mL. After 100 μL aliquots were added to each well of 96-well microtiter plates, cells were cultured in 5% incubator for overnight at 37° C., then the different concentration compounds were added to each well. After incubation for 48 h, MTT solution was added to each well and plates were then incubated for 4 h. The MTT tetrazolium was reduced to formazan by living cells. Then the formazan crystals were dissolved though adding DMSO to each well. The absorbance was read at 570 nm with a microplate reader.
# [3] = system: bladder cancer cell line J82; test: In vitro cell inhibition assay (crystal violet), bladder cancer J82; format: cell-based, human; details: Homo sapiens, read-out: Inhibition rate on human cancer cells
# Excerpt: as §1, §2, §3
# [4] = system: lung cancer cell line A549; test: In vitro cell inhibition assay (crystal violet), lung cancer A549; format: cell-based, human
# Excerpt: as §1, §2, §3
# [5] = system: lung cancer cell line H520; test: In vitro cell inhibition assay (crystal violet), lung cancer H520; format: cell-based, human
# Excerpt: as §1, §2, §3
Compound,"Inhibition rate on human cancer cells ([1]; H460, 5.0 μM)",Proliferation inhibitory effect on human leukemia HL-60 cell (%) ([2]; concentration 1 μM),Proliferation inhibitory effect on human leukemia HL-60 cell (%) ([2]; concentration 10 μM),Proliferation inhibitory effect on human leukemia HL-60 cell (%) ([2]; concentration 100 μM),"Inhibition rate on human cancer cells ([4]; A549, 1.0 μM)","Inhibition rate on human cancer cells ([4]; A549, 2.5 μM)","Inhibition rate on human cancer cells ([4]; A549, 5.0 μM)","Inhibition rate on human cancer cells ([1]; H460, 1.0 μM)","Inhibition rate on human cancer cells ([1]; H460, 2.5 μM)","Inhibition rate on human cancer cells ([5]; H520, 0.5 μM)","Inhibition rate on human cancer cells ([5]; H520, 1.0 μM)","Inhibition rate on human cancer cells ([5]; H520, 2.5 μM)","Inhibition rate on human cancer cells ([5]; H520, 5.0 μM)",further results
COC=C(C(=O)OC)c1ccccc1COc1ccc2c(C)cc(=O)oc2c1 [Compound 28-2],95%,6.0%,49.2%,71.3%,–,–,–,–,–,–,–,–,–,–
"CO/C=C(/C(=O)OC)c1ccccc1COc1ccc(C(F)(F)F)cc1Cl [compound B, flufenoxystrobin]",–,–,–,–,–,–,–,–,–,–,–,–,–,"inhibition at 0.25 µM ([3]; J82, 0.25 μM): 0%; inhibition at 0.5 µM ([3]; J82, 0.5 μM): 50%; inhibition at 1 µM ([3]; J82, 1.0 μM): 90%; inhibition at 2.5 µM ([3]; J82, 2.5 μM): 95%; inhibition at 5 µM ([3]; J82, 5.0 μM): 100%"
COC=C(C(=O)OC)c1ccccc1COc1ccc2c(C)c(C)c(=O)oc2c1C [Compound 28-6],–,48.2%,53.0%,52.0%,–,–,–,–,–,–,–,–,–,–
CCCc1c(C)c2ccc(OCc3ccccc3C(=COC)C(=O)OC)cc2oc1=O [Compound 28-27],95%,59.0%,79.9%,83.9%,80%,90%,95%,80%,95%,95%,100%,100%,100%,–
COC=C(C(=O)OC)c1ccccc1COc1ccc2c(C)c(Cl)c(=O)oc2c1 [28-12],95%,–,–,–,80%,95%,100%,75%,90%,–,50%,100%,100%,–
COC=C(C(=O)OC)c1ccccc1COc1ccc2c(C)c(F)c(=O)oc2c1 [Compound 28-50],95%,47.1%,83.1%,84.8%,–,–,90%,70%,90%,50%,60%,80%,100%,"Inhibition rate on human cancer cells ([5]; H520, 0.25 μM): 30%"
COC=C(C(=O)OC)c1ccccc1COc1ccc2c(C(F)(F)F)cc(=O)oc2c1 [Compound 28-7],95%,42.3%,71.0%,83.9%,–,70%,90%,–,80%,–,–,80%,100%,–
COC=C(C(=O)OC)c1ccccc1COc1ccc2cc(C#N)c(=O)oc2c1 [Compound 28-24],–,10.8%,44.5%,86.7%,–,–,–,–,–,–,–,–,–,–
COC=C(C(=O)OC)c1ccccc1COc1ccc2c(-c3ccccc3)cc(=O)oc2c1 [28-52],100%,–,–,–,95%,100%,100%,100%,100%,100%,100%,100%,100%,"Inhibition rate on human cancer cells ([4]; A549, 0.5 μM): 90%; Inhibition rate on human cancer cells ([1]; H460, 0.25 μM): 60%; Inhibition rate on human cancer cells ([1]; H460, 0.5 μM): 90%; Inhibition rate on human cancer cells ([5]; H520, 0.25 μM): 70%"
